Source: article PMC5234776, “Study of the Antimicrobial Activity of Tilapia Piscidin 3 (TP3) and TP4 and Their Effects on Immune Functions in Hybrid Tilapia (Oreochromis spp.)” (PLoS ONE, 2017)
Converted amounts (≈) assume the structure as drawn. Read-outs that look alike come from different tables or passages of the source. Peptide text beside a SMILES is read from it.

Columns and labels:
[1] = tested on: V. vulnificus; assay: MIC, broth microdilution (NCCLS); type: cell-based, Vibrio vulnificus; settings: 28°C
Method: (§1) We determined the MICs of TP3, TP4, kanamycin, and ampicillin against V. vulnificus using a broth microdilution method in accordance with NCCLS guidelines. To measure the killing efficiencies of TP3 and TP4 against V. vulnificus, we prepared TP3 or TP4 solutions at MIC concentrations of 0.5×, 1×, and 2× and these solutions with equal volumes of V. vulnificus (1×10^6 CFU/ml) to each well of a 96-well plate. The plates were incubated at 28°C for 0, 60, 120, 180, 360, 540, 720, or 1440 minutes, and after the incubation period, 50 μL of each bacterial solution were plated on a TCBS plate to obtain viable cell counts. Broth grown in the absence of peptides was used as a negative control. The results were determined using triplicate independent experiments.

[2] = tested on: V. vulnificus; assay: microbe, parasite or virus in culture; type: cell-based, Vibrio vulnificus; settings: V. vulnificus
Method: as §1
First, we determined the minimum MICs and minimum bactericidal concentrations (MBCs) of TP3 or TP4 against V. vulnificus.

[3] = tested on: V. vulnificus; assay: microbe, parasite or virus in culture; type: cell-based, Vibrio vulnificus
Method: (§2) To understand the effects of pH on TP3 or TP4, the reagents were dissolved in ddH2O, 1 M HCl or 1 M NaOH to obtain solutions with different pH values. For the temperature-dependent functional study, the TP3 or TP4 was added to a solution in a water bath (Basic life, model BL3002, Taiwan) and incubated for 60 minutes at different temperatures (40, 60, 80, or 100°C). To evaluate the effects of TP3 and TP4 on pepsin and trypsin function, each peptide was incubated for 10 or 30 minutes with different concentrations of pepsin or trypsin (0.1, 1, or 10 μg/ml), and we determined the MIC values after incubating these solutions with cells at 28°C for 720 minutes, according to a previously described MIC experimental protocol.

[4] = tested on: V. vulnificus; assay: microbe, parasite or virus in culture; type: cell-based, Vibrio vulnificus; remark: listed apart in the source
Method: as §2, with “[…],” for “and we determined the MIC values after incubating these solutions with cells at 28°C for 720 minutes,”

[5] = tested on: V. vulnificus; assay: Membrane perturbation, NPN uptake; type: cell-based, Vibrio vulnificus; settings: 1×10^6 CFU/ml, 30 minutes, 40 μmol/L NPN; kanamycin: slight increase only
Method: We used previously reported methods for the membrane perturbation assay. Briefly, a single colony of V. vulnificus was cultured in TSB medium for 480 minutes at 28°C, and the adjusted culture (1×10^6 CFU/ml) was aliquoted into different tubes with or without TP4 or TP3. After incubating the cells for 30 minutes, we added 40 μmol/L 1-N-phenylnaphthylamine (NPN) and continued to incubate the cells. Tubes containing PBS with NPN and bacterial cells with NPN served as controls. The NPN fluorescence intensity was detected using a fluorescence ELISA reader. All experiments were performed in triplicate, and the results are expressed as means with standard errors (SE).

[6] = tested on: V. vulnificus; assay: Synergy of TP3 or TP4 with ampicillin or kanamycin; type: cell-based, Vibrio vulnificus; settings: V. vulnificus 5×10^3 CFU/ml, 28°C, 720 minutes, 600-nm absorbance
Method: We used the co-treatment method to test combinations of TP3 or TP4 with ampicillin or kanamycin to identify synergistic effects. […] The plates were incubated at 28°C for 720 minutes, and after the incubation period, the concentrations of the bacterial solutions were detected using a spectrometer (600-nm absorbance).

[7] = tested on: tilapia; assay: Toxicity of peptide alone, tilapia survival; type: in vivo, tilapia (Oreochromis spp.); settings: abdominal cavity, no infection, seven days (S2 Fig)
Method: The antimicrobial activities of TP3 and TP4 peptides were analyzed in tilapia infected with lethal amounts of bacteria. Different amounts of V. vulnificus were injected into the abdominal cavities of the fish, and survival rates were recorded as cumulative percentages (S1 Fig). To determine whether TP3 and TP4 had any toxic effects on the tilapia, we injected different doses of TP3 and TP4 (0.1, 1, 10, 20, 30, 40, or 50 μg/fish) into the abdominal cavity and recorded the cumulative survival percentage of the fish (S2 Fig). We also co-treated tilapia with different doses (0.1, 1, 10, 20 μg/fish) of TP3 or TP4 combined with 2x10^4 CFU of V. vulnificus to evaluate tilapia survival following treatment. […] After 14, 21, or 28 days following the first co-treatment with TP3, the tilapia that survived in the 20 μg/fish TP3 experimental group were injected with a second dose of 2x10^4 CFU of V. vulnificus, and the survival rates were measured for another seven days. […] In the co-treatment experiments, at 14, 21, or 28 days after the first co-treatment with TP4, the surviving tilapia in the 20 μg/fish TP4 experimental group received a second injection of 2x10^4 CFU of V. vulnificus, and the survival rates were measured for another seven days.
Supplementary file pone.0169678.s002.pdf: S2 Fig Determination of tilapia survival rates seven days after injection with different concentrations of TP3 or TP4. (a) The survival rates of tilapia injected with TP3 at a dose of 0.1 μg/fish, 1 μg/fish, or 10 μg/fish. (b) The percentage of tilapia surviving after injection with TP4 at 0.1 μg/fish, 1 μg/fish, or 10 μg/fish. (c) The percentage of tilapia surviving after injection with TP3 at 20 μg/fish, 30 μg/fish, 40 μg/fish, or 50 μg/fish. (d) The percentage of tilapia surviving after injection with TP4 at 20 μg/fish, 30 μg/fish, 40 μg/fish, or 50 μg/fish. The control group (control) was injected with PBS alone. (PDF) Click here for additional data file.

[8] = in vivo; design: species or system tilapia (Oreochromis hybrids, Tilapia spp.); settings: male, iv, 0.2 mg/kg
Method: The peptide half-life of TP3 and TP4 were investigated in male tilapia (Oreochromis hybrids, Tilapia spp., with a mean body length of 32.33±1.5 cm and a mean body weight of 1117±78.2 g) after intravenous administration of a single dose of 0.2 mg/kg of peptide. The TP3 and TP4 concentrations in serum samples were determined at 10, 30, 60, 120, 180, 240, 300, and 360 minutes for TP3 and at 10, 60, 120, 180, 240, 300, and 360 minutes after dosing for TP4. At each sample collection time point, we anesthetized three fish and collected their blood. The blood was centrifuged to obtain fish serum, which was assessed by liquid chromatography-mass spectrometry/mass spectrometry (LC-MS/MS) at Mission Biotech (Taipei, Taiwan).

[9] = agent dissolved in pH = 4 solution
[10] = agent dissolved in pH = 6 solution
[11] = agent dissolved in pH = 8 solution
[12] = agent dissolved in pH = 10 solution
[13] = agent dissolved in pH = 12 solution
[14] = agent incubated 60 minutes at 40°C
[15] = agent incubated 60 minutes at 60°C
[16] = agent incubated 60 minutes at 80°C
[17] = agent incubated 60 minutes at 100°C

## NC[C@H]1O[C@H](O[C@H]2[C@H](O)[C@@H](O[C@H]3O[C@H](CO)[C@@H](O)[C@H](N)[C@H]3O)[C@H](N)C[C@@H]2N)[C@H](O)[C@@H](O)[C@@H]1O [kanamycin, reference compound]
[1]
  MIC: 31.2 mg/L (≈ 64.4 µM)
[2]
  MBC: 31.2 mg/L (≈ 64.4 µM)
[3]; Control of the pH series (pH 7)
  MBC: 31.2 mg/L (≈ 64.4 µM)
[3]; [9]
  MBC: 31.2 mg/L (≈ 64.4 µM)
  MIC: 31.2 mg/L (≈ 64.4 µM)
[3]; [10]
  MBC: 31.2 mg/L (≈ 64.4 µM)
  MIC: 31.2 mg/L (≈ 64.4 µM)
[3]; [11]
  MBC: 31.2 mg/L (≈ 64.4 µM)
  MIC: 31.2 mg/L (≈ 64.4 µM)
[3]; [12]
  MBC: 31.2 mg/L (≈ 64.4 µM)
  MIC: 31.2 mg/L (≈ 64.4 µM)
[3]; [13]
  MBC: 250 mg/L (≈ 516 µM)
  MIC: 250 mg/L (≈ 516 µM)
[4]; RT
  MBC: 31.2 mg/L (≈ 64.4 µM)
  MIC: 31.2 mg/L (≈ 64.4 µM)
[4]; [14]
  MBC: 31.2 mg/L (≈ 64.4 µM)
  MIC: 31.2 mg/L (≈ 64.4 µM)
[4]; [15]
  MBC: 31.2 mg/L (≈ 64.4 µM)
  MIC: 31.2 mg/L (≈ 64.4 µM)
[4]; [16]
  MBC: 31.2 mg/L (≈ 64.4 µM)
  MIC: 31.2 mg/L (≈ 64.4 µM)
[4]; [17]
  MBC: 62.5 mg/L (≈ 129 µM)
  MIC: 62.5 mg/L (≈ 129 µM)
[5]
  concentration that increased NPN fluorescence: 100 µg/mL
[6]
  change of the MIC of the antibiotic in combination with TP3 or TP4: halved

## CC1(C)S[C@@H]2[C@H](NC(=O)[C@H](N)c3ccccc3)C(=O)N2[C@H]1C(=O)O [ampicillin, reference compound]
[1]
  MIC: 3.9 mg/L (≈ 11.2 µM)
[1]; Vibrio vulnificus, read-out: MIC
  MIC: 3.91 mg/L (≈ 11.2 µM)
[2]
  MBC: 3.9 mg/L (≈ 11.2 µM)
[2]; Vibrio vulnificus, read-out: MBC
  MBC: 3.91 mg/L (≈ 11.2 µM)
[3]; Vibrio vulnificus, agent dissolved in pH = 4 solution, read-out: MBC
  MBC: 3.9 mg/L (≈ 11.2 µM)
[3]; Vibrio vulnificus, agent dissolved in pH = 4 solution, read-out: MIC
  MIC: 3.9 mg/L (≈ 11.2 µM)
[3]; Vibrio vulnificus, agent dissolved in pH = 6 solution, read-out: MBC
  MBC: 3.9 mg/L (≈ 11.2 µM)
[3]; Vibrio vulnificus, agent dissolved in pH = 6 solution, read-out: MIC
  MIC: 3.9 mg/L (≈ 11.2 µM)
[3]; Vibrio vulnificus, agent dissolved in pH = 8 solution, read-out: MBC
  MBC: 3.9 mg/L (≈ 11.2 µM)
[3]; Vibrio vulnificus, agent dissolved in pH = 8 solution, read-out: MIC
  MIC: 3.9 mg/L (≈ 11.2 µM)
[3]; Vibrio vulnificus, agent dissolved in pH = 10 solution, read-out: MBC
  MBC: 3.9 mg/L (≈ 11.2 µM)
[3]; Vibrio vulnificus, agent dissolved in pH = 10 solution, read-out: MIC
  MIC: 3.9 mg/L (≈ 11.2 µM)
[3]; Vibrio vulnificus, agent dissolved in pH = 12 solution, read-out: MBC
  MBC: 15.6 mg/L (≈ 44.6 µM)
[3]; Vibrio vulnificus, agent dissolved in pH = 12 solution, read-out: MIC
  MIC: 15.6 mg/L (≈ 44.6 µM)
[3]; Vibrio vulnificus, pH 7, Control of the pH series (pH 7), read-out: MBC
  MBC: 3.9 mg/L (≈ 11.2 µM)
[3]; Vibrio vulnificus, pH 7, Control of the pH series (pH 7), read-out: MIC
  MIC: 3.9 mg/L (≈ 11.2 µM)
[4]; Vibrio vulnificus, 1 h, agent incubated 60 minutes at 40°C, read-out: MBC
  MBC: 3.9 mg/L (≈ 11.2 µM)
[4]; Vibrio vulnificus, 1 h, agent incubated 60 minutes at 40°C, read-out: MIC
  MIC: 3.9 mg/L (≈ 11.2 µM)
[4]; Vibrio vulnificus, RT, read-out: MBC
  MBC: 3.9 mg/L (≈ 11.2 µM)
[4]; Vibrio vulnificus, RT, read-out: MIC
  MIC: 3.9 mg/L (≈ 11.2 µM)
[4]; [15]
  MBC: 3.9 mg/L (≈ 11.2 µM)
  MIC: 3.9 mg/L (≈ 11.2 µM)
[4]; [16]
  MBC: 3.9 mg/L (≈ 11.2 µM)
  MIC: 3.9 mg/L (≈ 11.2 µM)
[4]; [17]
  MBC: 3.9 mg/L (≈ 11.2 µM)
  MIC: 3.9 mg/L (≈ 11.2 µM)
[4]; from 40°C to 100°C, in words
  thermostability by MIC and MBC values: very stable
[6]
  change of the MIC of the antibiotic in combination with TP3 or TP4: halved

## CC[C@H](C)[C@H](NC(=O)[C@H](C)NC(=O)[C@H](CCCCN)NC(=O)CNC(=O)[C@H](C)NC(=O)[C@H](CO)NC(=O)[C@H](Cc1ccccc1)NC(=O)[C@H](CC(C)C)NC(=O)CNC(=O)CNC(=O)[C@@H](NC(=O)[C@@H](NC(=O)[C@H](Cc1cnc[nH]1)NC(=O)[C@H](Cc1cnc[nH]1)NC(=O)[C@@H](NC(=O)[C@@H](N)Cc1ccccc1)[C@@H](C)CC)[C@@H](C)CC)[C@@H](C)CC)C(=O)N[C@@H](Cc1cnc[nH]1)C(=O)N[C@@H](CCCNC(=N)N)C(=O)N[C@@H](CC(C)C)C(=O)N[C@H](C(=O)N[C@@H](CCCNC(=N)N)C(=O)N[C@@H](CCCNC(=N)N)C(=O)N[C@@H](CCCNC(=N)N)C(=O)N[C@@H](CCCNC(=N)N)C(=O)N[C@@H](CCCNC(=N)N)C(=O)O)[C@@H](C)CC [TP4, tilapia piscidin 4] (H-FIHHIIGGLFSAGKAIHRLIRRRRR-OH)
[7]; 20 μg/fish
  percent survival after injection of peptide only: 70.0%
[7]; 30 μg/fish
  percent survival after injection of peptide only: 56.7%
[7]; 40 μg/fish
  percent survival after injection of peptide only: 63.3%
[7]; 50 μg/fish
  percent survival after injection of peptide only: 30.0%
[8]
  half-life: 1 h
